Laboratory results: PMC3104040 (Bioorganic & medicinal chemistry, 2011)

How the values were obtained:
ECTV-Moscow strain = assay: organism not typed; assay type: cell-based, Ectromelia
[1] = test system: Vaccinia virus (Copenhagen); assay: microbe, parasite or virus in culture; assay type: cell-based; details: Orthopoxvirus vaccinia, HFF, read-out: Vaccinia EC50
cowpox virus (Brighton) = assay: organism not typed; assay type: cell-based; details: HFF, read-out: EC50 in cells infected with cowpox or vaccinia virus

C=CCCCCCCCCCCCCCCOCCOP(=O)(O)CO[C@H](CO)Cn1cnc2c(N)ncnc21 [HDNE-(S)-HPMPA, ω-hexadecenyloxyethyl-(S)-HPMPA]
Ectromelia S.I. (selective index) (ECTV-Moscow strain): 7
EC50 (ECTV-Moscow strain; BSC-1, read-out: antiviral activity (EC50), virus not specified): 300 to 740 nM

CCCCCCCCCCCCCCCCOCCCOP(=O)(O)CO[C@H](CO)Cn1ccc(N)nc1=O [HDP-CDV, hexadecyloxypropyl-cidofovir]
EC50 [1]: 80 ± 30 nM

CCCCCCCCCCCCCCCCOCCCOP(=O)(O)CO[C@H](CO)Cn1cnc2c(N)ncnc21 [HDP-(S)-HPMPA, hexadecyloxypropyl-(S)-HPMPA]
% intact compound, human liver S9: 92-93%

CC(C)CCCCCCCCCCCOCCCOP(=O)(O)CO[C@H](CO)Cn1ccc(N)nc1=O [Compound 12M-TRDP-CDV, 12-methyl-tridecyloxypropyl-cidofovir]
EC50 (cowpox virus (Brighton)): 800 to 1000 nM

CCCCCCCCCCCCCCCCCCOC[C@@H](COP(=O)(O)CO[C@H](CO)Cn1ccc(N)nc1=O)OCc1ccccc1 [ODBG-CDV, 1-O-octadecyl-2-O-benzyl-sn-glyceryl-3-cidofovir]
% compound remaining, Human S9 (s9, 1.5 h): 91-92%
